The target of the first test is T1, purified human COMT enzyme of the Val158 variant (membrane-bound MB-COMT) (Homo sapiens, UniProt P21964).
T1 construct: 6xHis or 10xHis (C)
T1 sequence (P21964 1-271): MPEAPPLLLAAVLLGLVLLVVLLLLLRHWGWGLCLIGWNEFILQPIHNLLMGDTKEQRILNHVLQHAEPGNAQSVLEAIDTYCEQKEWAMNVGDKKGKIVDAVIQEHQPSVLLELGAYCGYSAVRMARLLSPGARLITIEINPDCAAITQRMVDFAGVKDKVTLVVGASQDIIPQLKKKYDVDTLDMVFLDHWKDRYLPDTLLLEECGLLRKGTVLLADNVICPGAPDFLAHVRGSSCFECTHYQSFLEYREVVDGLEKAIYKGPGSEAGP
Put plainly: MB-COMT inhibition, Esculetin or Fluorescence Polarization assay. The class given is biochemical.
Details: not given
Regarding `COc1ccc(-c2nc3cc(-n4ccc(=O)c(O)c4)ccc3[nH]2)cc1` [Example 2, 3-hydroxy-1-[2-(4-methoxyphenyl)-1H-benzimidazol-5-yl]pyridin-4(1H)-one], the IC50 (in general, the concentration that inhibits the measured activity by half) was 0.064 µM.

The test is the same for the next values; noted with them: Esculetin or Fluorescence Polarization assay; human Val158 variant; read-out: MB-COMT IC50-.
As to `CC(O)c1cc(=O)c(O)cn1-c1cccc(-c2c(Cl)cnc3[nH]ccc23)c1` (single isomer, unassigned) [Example 13, 1-[3-(5-chloro-1H-pyrrolo[2,3-b]pyridin-4-yl)phenyl]-5-hydroxy-2-(1-hydroxyethyl)-pyridin-4(1H)-one], the concentration for half-maximal inhibition (IC50) turned out to be 0.041 µM.
Still for that read-out and setting: the same measure for `Nc1cc(=O)c(O)cn1-c1cccc(-c2ccccc2)c1` [Example 3, 2-Amino-1-(biphenyl-3-yl)-5-hydroxypyridin-4(1H)-one]: 0.075 µM; for `CNc1cc(=O)c(O)cn1-c1cccc(-c2ccccc2)c1` [Example 4, 1-(Biphenyl-3-yl)-5-hydroxy-2-(methylamino)pyridin-4(1H)-one]: 0.1 µM; for `O=c1ccn(-c2cccc(-c3cccc4[nH]ncc34)n2)cc1O` [Example 8, 3-Hydroxy-6′-(1H-indazol-4-yl)-4H-1,2′-bipyridin-4-one]: 0.021 µM.
The same measure, in the same setting: the same measure for `O=c1ccn(-c2nccc(-c3c(Cl)cnc4[nH]ccc34)c2F)cc1O` [Example 9, 4′-(5-chloro-1H-pyrrolo[2,3-b]pyridin-4-yl)-3′-fluoro-3-hydroxy-4H-1,2′-bipyridin-4-one]: 0.008 µM.
Still for that read-out and setting: next, `Cc1cc(=O)c(O)cn1-c1cccc2c1ncn2Cc1c(F)cccc1Cl` [Example 10, 1-[1-(2-Chloro-6-fluorobenzyl)-1H-benzimidazol-4-yl]-5-hydroxy-2-methylpyridin-4(1H)-one]: 0.191 µM.
For `COc1ncc(F)cc1C(O)Cc1cc(=O)c(O)cn1-c1cccc(-c2ccccc2)c1` (centres unmarked) [Example 11, 1-biphenyl-3-yl-2-[2-(5-fluoro-2-methoxypyridin-3-yl)-2-hydroxyethyl]-5-hydroxypyridin-4(1H)-one], the 50% inhibitory concentration (IC50) amounted to 0.087 µM.
On the same count and under the same terms, next, `O=c1cc(C(O)C#Cc2ccccc2)n(-c2cccc(-c3c(Cl)cnc4[nH]ccc34)c2)cc1O` (centres unmarked) [Example 12, 1-[3-(5-chloro-1H-pyrrolo[2,3-b]pyridin-4-yl)phenyl]-5-hydroxy-2-(1-hydroxy-3-phenylprop-2-yn-1-yl)pyridin-4(1H)-one]: 0.026 µM.
Still for that read-out and setting: next, `CC(O)c1cc(=O)c(O)cn1-c1cccc(-c2cncc3ccccc23)c1` (centres unmarked) [Example 14, 5-hydroxy-2-(1-hydroxyethyl)-1-[3-(isoquinolin-4-yl)phenyl]pyridin-4(1H)-one]: 0.226 µM; `O=c1cc(C(O)C(F)(F)F)n(-c2cccc(-c3cccc4ncccc34)c2)cc1O` (centres unmarked) [Example 15, 5-hydroxy-1-[3-(quinolin-5-yl)phenyl]-2-(2,2,2-trifluoro-1-hydroxyethyl)pyridin-4(1H)-one]: 0.07 µM.

For the origin of these results see patent publication US9024032B2, “Inhibitors of catechol O-methyl transferase and their use in the treatment of psychotic disorders” (Merck Sharp & Dohme Corp., priority 2010, dated 2015).
